Test results: patent US10131644B2, “Aryl sultam derivatives as RORc modulators” (Genentech, Inc., priority 2014, dated 2018)

Biological target: T1, RORc (Homo sapiens, UniProt P51449)
T1 sequence (P51449 269-508 limits assumed): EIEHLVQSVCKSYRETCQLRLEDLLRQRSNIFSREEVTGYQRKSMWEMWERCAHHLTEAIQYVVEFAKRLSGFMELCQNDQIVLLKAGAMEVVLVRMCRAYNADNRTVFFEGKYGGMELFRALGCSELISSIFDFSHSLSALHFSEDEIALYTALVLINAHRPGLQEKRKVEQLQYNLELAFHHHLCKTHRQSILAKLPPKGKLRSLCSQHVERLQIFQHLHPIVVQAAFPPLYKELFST
Experiment: In vitro RORc ligand binding assay (25-[3H]hydroxycholesterol displacement)
Settings: IC50, IC50 values for RORc; unit inferred

Row | Compound | IC50
1 | C[C@H]1CC[C@H](c2ccccc2)S(=O)(=O)N1Cc1cc(F)c(C2(OCC(=O)O)CCOCC2)cc1F [Compound 145, 2-[4-[2,5-difluoro-4-[[(3S,6R)-3-methyl-1,1-dioxo-6-phenyl-thiazinan-2-yl]methyl]phenyl]tetrahydropyran-4-yl]oxyacetic acid] | 14.3 nM
2 | C[C@H]1CC[C@H](c2ccccc2)S(=O)(=O)N1Cc1ccc([C@]2(CO)CC[C@@H](n3cnnc3)CC2)cc1F [Compound 26, {1-[3-Fluoro-4-((3S,6R)-3-methyl-1,1-dioxo-6-phenyl-[1,2]thiazinan-2-ylmethyl)-phenyl]-4-[1,2,4]triazol-4-yl-cyclohexyl}-methanol] | 32 nM
3 | C[C@H]1CC[C@H](c2ccccc2)S(=O)(=O)N1Cc1cc(F)c(C2(OCC(O)CO)CCOCC2)cc1F (stereo partly drawn) [Compound 151, 3-[4-[2,5-difluoro-4-[[(3S,6R)-3-methyl-1,1-dioxo-6-phenyl-thiazinan-2-yl]methyl]phenyl]tetrahydropyran-4-yl]oxypropane-1,2-diol] | 7.8 nM
4 | COCCCOCC1(c2ccc(CN3[C@@H](C)CC[C@H](c4ccccc4)S3(=O)=O)c(F)c2)CCOCC1 [Compound 91, (3S,6R)-2-[[2-fluoro-4-[4-(3-methoxypropoxymethyl)tetrahydro-pyran-4-yl]phenyl]methyl]-3-methyl-6-phenyl-thiazinane 1,1-dioxide] | 103 nM
5 | C[C@H]1CC[C@H](c2ccccc2)S(=O)(=O)N1Cc1cc(F)c(C2(CO)CCC(O)CC2)cc1F (stereo partly drawn) [Compound 130, 4-[2,5-difluoro-4-[[(3S,6R)-3-methyl-1,1-dioxo-6-phenyl-thiazinan-2-yl]methyl]phenyl]-4-(hydroxymethyl)cyclohexanol] | 34.7 nM
6 | CC(=O)NCC1(c2ccc(CN3[C@@H](C)CC[C@H](c4ccccc4)S3(=O)=O)c(F)c2)CCOCC1 [Compound 70, N-[[4-[3-fluoro-4-[[(3S,6R)-3-methyl-1,1-dioxo-6-phenyl-thiazinan-2-yl]methyl]phenyl]tetrahydropyran-4-yl]methyl]acetamide] | 148 nM
7 | C[C@H]1CC[C@H](c2ccccc2)S(=O)(=O)N1Cc1cc(F)c(C2(C(=O)NCC#N)CC2)cc1F [Compound 128, N-(cyanomethyl)-1-[2,5-difluoro-4-[[(3S,6R)-3-methyl-1,1-dioxo-6-phenyl-thiazinan-2-yl]methyl]phenyl]cyclopropane-carboxamide] | 390 nM
8 | CCOC(=O)[C@@H](C)NC1(c2ccc(CN3[C@@H](C)CC[C@H](c4ccccc4)S3(=O)=O)c(F)c2)CCOCC1 [Compound 172, ethyl (2R)-2-[[4-[3-fluoro-4-[[(3S,6R)-3-methyl-1,1-dioxo-6-phenyl-thiazinan-2-yl]methyl]phenyl]tetrahydropyran-4-yl]amino]propanoate] | 120 nM
9 | C[C@H]1CC[C@H](c2ccccc2)S(=O)(=O)N1Cc1ccc([C@]2(C#N)C[C@@H](O)C2)cc1F [Compound 179, 1-[3-fluoro-4-[[(3S,6R)-3-methyl-1,1 dioxo-6-phenyl-thiazinan-2-yl]methyl]phenyl]-3-hydroxy-cyclobutanecarbonitrile] | 159 nM
10 | C[C@H]1CC[C@H](c2ccccc2)S(=O)(=O)N1Cc1ccc(C2([C@H](O)CO)CCOCC2)cc1F [Compound 103, (1S)-1-[4-[3-fluoro-4-[[(3S,6R)-3-methyl-1,1-dioxo-6-phenyl-thiazinan-2-yl]methyl]phenyl]tetrahydropyran-4-yl]ethane-1,2-diol] | 68.9 nM
11 | COC(=O)C1(c2ccc(CN3[C@@H](C)CC[C@@H](c4ccccc4)S3(=O)=O)c(F)c2)CCOCC1 [Compound 38, 4-[3-Fluoro-4-((3S,6S)-3-methyl-1,1-dioxo-6-phenyl-[1,2]thiazinan-2-ylmethyl)-phenyl]-tetrahydro-pyran-4-carboxylic acid methyl ester] | 480 nM
12 | CCOC(=O)C[C@@H](O)C1(c2ccc(CN3[C@@H](C)CC[C@H](c4ccccc4)S3(=O)=O)c(F)c2)CCOCC1 [Compound 116, ethyl (3R)-3-[4-[3-fluoro-4-[[(3S,6R)-3-methyl-1,1-dioxo-6-phenyl-thiazinan-2-yl]methyl]phenyl]tetrahydropyran-4-yl]-3-hydroxy-propanoate] | 12.2 nM
13 | C[C@H]1CC[C@H](c2ccccc2)S(=O)(=O)N1Cc1ccc(C2(O)CCS(=O)(=O)CC2)cc1F [Compound 42, (3S,6R)-2-(2-fluoro-4-(4-hydroxy-1,1-dioxidotetrahydro-2H-thiopyran-4-yl)benzyl)-3-methyl-6-phenyl-1,2-thiazinane 1,1-dioxide] | 190 nM
14 | C[C@H](NC1(c2ccc(CN3[C@@H](C)CC[C@H](c4ccccc4)S3(=O)=O)c(F)c2)CCOCC1)C(N)=O [Compound 185, (2S)-2-[[4-[3-fluoro-4-[[(3S,6R)-3-methyl-1,1-dioxo-6-phenyl-thiazinan-2-yl]methyl]phenyl]tetrahydropyran-4-yl]amino]propanamide] | 102 nM

Further lines, results first:

Row | IC50 | Compound
15 | 2700 nM | C[C@H]1CC[C@H](c2ccccc2)S(=O)(=O)N1Cc1ccc([C@]2(C(=O)O)CC[C@H](n3cnnc3)CC2)cc1 [Example 13, 1-[4-((3S,6R)-3-Methyl-1,1-dioxo-6-phenyl-[1,2]thiazinan-2-ylmethyl)-phenyl]-4-[1,2,4]triazol-4-yl-cyclohexane-carboxylic acid]
16 | 63 nM | C[C@H]1CC[C@H](c2ccccc2)S(=O)(=O)N1Cc1ccc(C2([C@@H](O)CO)CCOCC2)cc1F [Compound 98, (1R)-1-[4-[3-fluoro-4-[[(3S,6R)-3-methyl-1,1-dioxo-6-phenyl-thiazinan-2-yl]methyl]phenyl]tetrahydropyran-4-yl]ethane-1,2-diol]
17 | 4400 nM | C[C@H]1CCC(c2ccccc2)S(=O)(=O)N1Cc1ccc(C2(C(=O)O)CCOCC2)cc1 (stereo partly drawn) [Compound 29, 4-[4-((S)-3-Methyl-1,1-dioxo-6-phenyl-[1,2]thiazinan-2-ylmethyl)-phenyl]-tetrahydro-pyran-4-carboxylic acid]
18 | 29.5 nM | CCOC(=O)CNC1(c2ccc(CN3[C@@H](C)CC[C@H](c4ccccc4)S3(=O)=O)c(F)c2)CCOCC1 [Compound 161, ethyl 2-[[4-[3-fluoro-4-[[(3S,6R)-3-methyl-1,1-dioxo-6-phenyl-thiazinan-2-yl]methyl]phenyl]tetrahydropyran-4-yl]amino]acetate]
19 | 37.8 nM | C[C@H]1CC[C@H](c2ccccc2)S(=O)(=O)N1Cc1cc(F)c(C2(C(N)=O)CCOCC2)cc1F [Compound 102, 4-[2,5-difluoro-4-[[(3S,6R)-3-methyl-1,1-dioxo-6-phenyl-thiazinan-2-yl]methyl]phenyl]tetrahydropyran-4-carboxamide]
20 | 130 nM | CC(=O)N1CCC(O)(c2ccc(CN3[C@@H](C)CC[C@H](c4ccccc4)S3(=O)=O)c(F)c2)CC1 [Example 9, 1-{4-[3-Fluoro-4-((3S,6R)-3-methyl-1,1-dioxo-6-phenyl-[1,2]thiazinan-2-ylmethyl)-phenyl]-4-hydroxy-piperidin-1-yl}-ethanone]
21 | 89 nM | COCCNC(=O)C1(c2ccc(CN3[C@@H](C)CC[C@H](c4ccccc4)S3(=O)=O)c(F)c2)CCOCC1 [Compound 64, 4-[3-fluoro-4-[[(3S,6R)-3-methyl-1,1-dioxo-6-phenyl-thiazinan-2-yl]methyl]phenyl]-N-(2-methoxyethyl)tetrahydropyran-4-carboxamide]
22 | 50.4 nM | C[C@H]1CC[C@H](c2ccccc2)S(=O)(=O)N1Cc1ccc(C2(NC[C@@H](O)CO)CCOCC2)cc1F [Compound 108]
23 | 52.9 nM | C[C@H]1CC[C@H](c2ccccc2)S(=O)(=O)N1Cc1ccc(C2(C(=O)NCCC#N)CCOCC2)cc1F [Compound 65, N-(2-cyanoethyl)-4-[3-fluoro-4-[[(3S,6R)-3-methyl-1,1-dioxo-6-phenyl-thiazinan-2-yl]methyl]phenyl]tetrahydropyran-4-carboxamide]
24 | 250 nM | CC(=O)NCCNC(=O)C1(c2ccc(CN3[C@@H](C)CC[C@H](c4ccccc4)S3(=O)=O)c(F)c2)CCOCC1 [Compound 50, N-(2-acetamidoethyl)-4-[3-fluoro-4-[[(3S,6R)-3-methyl-1,1-dioxo-6-phenyl-thiazinan-2-yl]methyl]phenyl]tetrahydropyran-4-carboxamide]
25 | 33.1 nM | CNC(=O)CNC1(c2ccc(CN3[C@@H](C)CC[C@H](c4ccccc4)S3(=O)=O)c(F)c2)CCOCC1 [Compound 173, 2-[[4-[3-fluoro-4-[[(3S,6R)-3-methyl-1,1-dioxo-6-phenyl-thiazinan-2-yl]methyl]phenyl]tetrahydropyran-4-yl]amino]-N-methyl-acetamide]
26 | 500 nM | COC(=O)C1(c2ccc(CN3[C@@H](C)CC[C@H](c4ccccc4)S3(=O)=O)cc2)CCOCC1 [Compound 27, 4-[4-((3S,6R)-3-Methyl-1,1-dioxo-6-phenyl-[1,2]thiazinan-2-ylmethyl)-phenyl]-tetrahydro-pyran-4-carboxylic acid methyl ester]
27 | 820 nM | C[C@H]1CC[C@H](c2ccccc2)S(=O)(=O)N1Cc1ccc(C2(C(=O)N(C)C)CCOCC2)cc1 [Compound 35, 4-[4-((3S,6R)-3-Methyl-1,1-dioxo-6-phenyl-[1,2]thiazinan-2-ylmethyl)-phenyl]-tetrahydro-pyran-4-carboxylic acid dimethylamide]
28 | 1100 nM | C[C@H]1CC[C@H](c2ccccc2)S(=O)(=O)N1Cc1ccc(C2(C(=O)O)CCOCC2)cc1F [Compound 44, 4-[3-Fluoro-4-((3S,6R)-3-methyl-1,1-dioxo-6-phenyl-[1,2]thiazinan-2-ylmethyl)-phenyl]-tetrahydro-pyran-4-carboxylic acid]
29 | 44.1 nM | C[C@H]1CC[C@H](c2ccccc2)S(=O)(=O)N1Cc1ccc([C@]2(C#N)C[C@H](O)C2)cc1F [Compound 178, 1-[3-fluoro-4-[[(3S,6R)-3-methyl-1,1-dioxo-6-phenyl-thiazinan-2-yl]methyl]phenyl]-3-hydroxy-cyclobutanecarbonitrile]
